# Data published in patent publication US20230365592A1 (Agios Pharmaceuticals, Inc., priority 2022, published 2023).
# Molecular target: T1, human PAH with the R408W mutation (Homo sapiens, UniProt P00439, R408W)
# T1 construct: expressed in transfected cells
# T1 sequence (P00439 1-452 R408W): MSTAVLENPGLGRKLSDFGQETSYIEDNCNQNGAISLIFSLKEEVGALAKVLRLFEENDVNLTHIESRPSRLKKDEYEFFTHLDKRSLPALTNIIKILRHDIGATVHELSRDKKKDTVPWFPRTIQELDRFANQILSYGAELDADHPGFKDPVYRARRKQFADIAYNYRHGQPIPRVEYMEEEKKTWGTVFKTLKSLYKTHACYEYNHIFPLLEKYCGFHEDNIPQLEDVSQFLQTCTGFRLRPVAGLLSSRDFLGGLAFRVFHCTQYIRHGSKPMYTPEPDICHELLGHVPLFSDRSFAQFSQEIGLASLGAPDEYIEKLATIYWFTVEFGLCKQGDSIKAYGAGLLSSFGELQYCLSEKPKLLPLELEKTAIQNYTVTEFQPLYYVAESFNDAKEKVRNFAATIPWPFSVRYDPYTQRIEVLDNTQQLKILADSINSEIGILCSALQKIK
# Test: Cell Based Phenylalanine Flux Assay;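 also: after compound treatment, cells received sepiapterin plus isotope-labelled Phenylalanine for 4 hours, then labelled Tyrosine in the medium was quantified, 10-point 2-fold dilution series run in duplicate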
# Conditions: A375 cells expressing human PAH R408W; 24 hrs compound incubation; 13C-Tyrosine by LC-MS; average where tested multiple times; read-out: AC50
row,AC50,SMILES
1,< 0.5 µM,"FC(F)Oc1cccn2nc([C@@H]3c4nc[nH]c4CCN3c3ncccn3)cc12 [Example 2254, (S)-4-(4-(difluoromethoxy)pyrazolo[1,5-a]pyridin-2-yl)-5-(pyrimidin-2-yl)-4,5,6,7-tetrahydro-1H-imidazo[4,5-c]pyridine]"
2,1 to 5 µM,"FC(F)Oc1cccn2nc([C@H]3c4nc[nH]c4CCN3c3ncccn3)cc12 [Example 2255, (R)-4-(4-(difluoromethoxy)pyrazolo[1,5-a]pyridin-2-yl)-5-(pyrimidin-2-yl)-4,5,6,7-tetrahydro-1H-imidazo[4,5-c]pyridine]"
3,< 0.5 µM,"FC(F)Oc1cccn2nc([C@@H]3c4nc[nH]c4CCN3c3ncc(C(F)(F)F)cn3)cc12 [Example 2256, (S)-4-(4-(difluoromethoxy)pyrazolo[1,5-a]pyridin-2-yl)-5-(5-(trifluoromethyl)pyrimidin-2-yl)-4,5,6,7-tetrahydro-1H-imidazo[4,5-c]pyridine]"
4,> 5 µM,"FC(F)Oc1cccn2nc([C@H]3c4nc[nH]c4CCN3c3ncc(C(F)(F)F)cn3)cc12 [Example 2257, (R)-4-(4-(difluoromethoxy)pyrazolo[1,5-a]pyridin-2-yl)-5-(5-(trifluoromethyl)pyrimidin-2-yl)-4,5,6,7-tetrahydro-1H-imidazo[4,5-c]pyridine]"
5,0.5 to 1 µM,"CC1(c2nnc(N3CCc4[nH]cnc4[C@H]3c3cc4c(Cl)cccn4n3)o2)CC1 [Example 2259, (S)-2-(4-(4-chloropyrazolo[1,5-a]pyridin-2-yl)-1,4,6,7-tetrahydro-5H-imidazo[4,5-c]pyridin-5-yl)-5-(1-methylcyclopropyl)-1,3,4-oxadiazole]"
6,> 5 µM,"CC(C)c1cccn2nc([C@H]3c4nc[nH]c4CCN3c3nnc(-c4cccnc4)o3)cc12 [Example 2260, (R)-2-(4-(4-isopropylpyrazolo[1,5-a]pyridin-2-yl)-1,4,6,7-tetrahydro-5H-imidazo[4,5-c]pyridin-5-yl)-5-(pyridin-3-yl)-1,3,4-oxadiazole]"
7,> 5 µM,"Cc1cccnc1-c1nnc(N2CCc3[nH]cnc3[C@@H]2c2cc3ccccn3n2)o1 [Example 2266, (R)-2-(3-methylpyridin-2-yl)-5-(4-(pyrazolo[1,5-a]pyridin-2-yl)-1,4,6,7-tetrahydro-5H-imidazo[4,5-c]pyridin-5-yl)-1,3,4-oxadiazole]"
8,< 0.5 µM,"Cc1cccnc1-c1nnc(N2CCc3[nH]cnc3[C@H]2c2cc3ccccn3n2)o1 [Example 2267, (S)-2-(3-methylpyridin-2-yl)-5-(4-(pyrazolo[1,5-a]pyridin-2-yl)-1,4,6,7-tetrahydro-5H-imidazo[4,5-c]pyridin-5-yl)-1,3,4-oxadiazole]"
9,> 5 µM,"Cc1cccnc1-c1nnc(N2CCc3[nH]cnc3[C@@H]2c2cc3c(C)cccn3n2)o1 [Example 2268, (R)-2-(4-(4-methylpyrazolo[1,5-a]pyridin-2-yl)-1,4,6,7-tetrahydro-5H-imidazo[4,5-c]pyridin-5-yl)-5-(3-methylpyridin-2-yl)-1,3,4-oxadiazole]"
10,< 0.5 µM,"Cc1cccnc1-c1nnc(N2CCc3[nH]cnc3[C@H]2c2cc3c(C)cccn3n2)o1 [Example 2269, (S)-2-(4-(4-methylpyrazolo[1,5-a]pyridin-2-yl)-1,4,6,7-tetrahydro-5H-imidazo[4,5-c]pyridin-5-yl)-5-(3-methylpyridin-2-yl)-1,3,4-oxadiazole]"
11,< 0.5 µM,"FC(F)(F)Oc1cccn2nc([C@@H]3c4nc[nH]c4CCN3c3ncccn3)cc12 [Example 2270, (S)-5-(pyrimidin-2-yl)-4-(4-(trifluoromethoxy)pyrazolo[1,5-a]pyridin-2-yl)-4,5,6,7-tetrahydro-1H-imidazo[4,5-c]pyridine]"
12,> 5 µM,"FC(F)(F)Oc1cccn2nc([C@H]3c4nc[nH]c4CCN3c3ncccn3)cc12 [Example 2271, (R)-5-(pyrimidin-2-yl)-4-(4-(trifluoromethoxy)pyrazolo[1,5-a]pyridin-2-yl)-4,5,6,7-tetrahydro-1H-imidazo[4,5-c]pyridine]"
13,> 5 µM,"FC(F)Oc1cccn2nc([C@H]3c4nc[nH]c4CCN3c3ccc(C(F)(F)F)cn3)cc12 [Example 2273, (R)-4-(4-(difluoromethoxy)pyrazolo[1,5-a]pyridin-2-yl)-5-(5-(trifluoromethyl)pyridin-2-yl)-4,5,6,7-tetrahydro-1H-imidazo[4,5-c]pyridine]"
14,0.5 to 1 µM,"Cc1cccc2cc([C@@H]3c4nc[nH]c4CCN3c3nnc(-c4cccnc4F)o3)nn12 [Example 2274, (S)-2-(2-fluoropyridin-3-yl)-5-(4-(7-methylpyrazolo[1,5-a]pyridin-2-yl)-1,4,6,7-tetrahydro-5H-imidazo[4,5-c]pyridin-5-yl)-1,3,4-oxadiazole]"
15,> 5 µM,"Cc1cccc2cc([C@H]3c4nc[nH]c4CCN3c3nnc(-c4cccnc4F)o3)nn12 [Example 2275, (R)-2-(2-fluoropyridin-3-yl)-5-(4-(7-methylpyrazolo[1,5-a]pyridin-2-yl)-1,4,6,7-tetrahydro-5H-imidazo[4,5-c]pyridin-5-yl)-1,3,4-oxadiazole]"
16,< 0.5 µM,"Cc1cccnc1-c1nnc(N2CCc3[nH]cnc3[C@H]2c2cc3c(C(F)(F)F)cccn3n2)o1 [Example 2276, (S)-2-(3-methylpyridin-2-yl)-5-(4-(4-(trifluoromethyl)pyrazolo[1,5-a]pyridin-2-yl)-1,4,6,7-tetrahydro-5H-imidazo[4,5-c]pyridin-5-yl)-1,3,4-oxadiazole]"
17,> 5 µM,"Cc1cccnc1-c1nnc(N2CCc3[nH]cnc3[C@@H]2c2cc3c(C(F)(F)F)cccn3n2)o1 [Example 2277, (R)-2-(3-methylpyridin-2-yl)-5-(4-(4-(trifluoromethyl)pyrazolo[1,5-a]pyridin-2-yl)-1,4,6,7-tetrahydro-5H-imidazo[4,5-c]pyridin-5-yl)-1,3,4-oxadiazole]"
18,> 5 µM,"Cc1cccnc1-c1nnc(N2CCc3[nH]cnc3[C@@H]2c2cc3c(C(F)F)cccn3n2)o1 [Example 2278, (R)-2-(4-(4-(difluoromethyl)pyrazolo[1,5-a]pyridin-2-yl)-1,4,6,7-tetrahydro-5H-imidazo[4,5-c]pyridin-5-yl)-5-(3-methylpyridin-2-yl)-1,3,4-oxadiazole]"
19,< 0.5 µM,"Cc1cccnc1-c1nnc(N2CCc3[nH]cnc3[C@H]2c2cc3c(F)cccn3n2)o1 [Example 2280, (S)-2-(4-(4-fluoropyrazolo[1,5-a]pyridin-2-yl)-1,4,6,7-tetrahydro-5H-imidazo[4,5-c]pyridin-5-yl)-5-(3-methylpyridin-2-yl)-1,3,4-oxadiazole]"
20,> 5 µM,"Cc1cccnc1-c1nnc(N2CCc3[nH]cnc3[C@@H]2c2cc3c(C4CC4)cccn3n2)o1 [Example 2282, (R)-2-(4-(4-cyclopropylpyrazolo[1,5-a]pyridin-2-yl)-1,4,6,7-tetrahydro-5H-imidazo[4,5-c]pyridin-5-yl)-5-(3-methylpyridin-2-yl)-1,3,4-oxadiazole]"
21,< 0.5 µM,"Cc1cccnc1-c1nnc(N2CCc3[nH]cnc3[C@H]2c2cc3c(C4CC4)cccn3n2)o1 [Example 2283, (S)-2-(4-(4-cyclopropylpyrazolo[1,5-a]pyridin-2-yl)-1,4,6,7-tetrahydro-5H-imidazo[4,5-c]pyridin-5-yl)-5-(3-methylpyridin-2-yl)-1,3,4-oxadiazole]"
